Measured values as given in patent publication US4971967A, “Quinolinecarboxylic acid derivatives, antibacterial compositions and use” (Kanebo Ltd, priority 1989, dated 1990).
Values after ≈ are worked out from the molar mass of the structure shown. Where a name gives a salt, the structure may show the parent alone. Read-outs that look alike come from different tables or passages of the source.

Tests used:
Format in all cases: cell-based
[1] = system: Serratia marcescens IAM 1184; assay: Antibacterial activity (MIC), Serratia marcescens IAM 1184; conditions: Serratia marcescens, IAM1184, Serratia marcescens IAM 1184, Gram -; read-out: Minimum inhibitory concentration (MIC)
Protocol: (§1) The compounds of the present invention (A, C, D, E, F, G, H, I, J, L, O and P) and the known compound (X) as reference were dissolved in 0.1 N aqueous sodium hydroxide to prepare a solution of 5000 μg/ml in concentration. The compounds of the present invention (B, K, M and N) and the known compound (Y) were dissolved in sterilized distilled water to prepare a solution of 5000 μg/ml in concentration. Each solution was diluted with sterilized distilled water to prepare a standard solution with a concentration of each test compound: 1000 μg/ml. The test was carried out by a method as appointed by Japan Society of Chemotherapy [cf. Chemotherapy, 29, 76-79 (1981)(TOKYO)].

[2] = system: Micrococcus luteus ATCC 9341; assay: Antibacterial activity (MIC), Micrococcus luteus ATCC 9341; conditions: ATCC9341; Micrococcus luteus ATCC 9341, Gram +; read-out: Minimum inhibitory concentration (MIC)
Protocol: as §1

[3] = system: Escherichia coli NIHJ JC-2; assay: Antibacterial activity (MIC), E. coli NIHJ JC-2; conditions: NIHJJC2; Escherichia coli NIHJ JC-2, Gram -; read-out: Minimum inhibitory concentration (MIC)
Protocol: as §1

[4] = system: Salmonella typhimurium IID 971; assay: Antibacterial activity (MIC), Salmonella typhimurium IID 971; conditions: Salmonella enterica; Salmonella typhimurium IID 971, Gram -; read-out: Minimum inhibitory concentration (MIC)
Protocol: as §1

[5] = system: Staphylococcus aureus IID 803; assay: Antibacterial activity (MIC), S. aureus IID 803
Protocol: as §1

Escherichia coli KC-14 = assay: Antibacterial activity (MIC), E. coli KC-14; conditions: KC14; Escherichia coli KC-14, Gram -; read-out: Minimum inhibitory concentration (MIC)
Protocol: as §1

[6] = system: Staphylococcus aureus FDA 209P JC-1; assay: Antibacterial activity (MIC), S. aureus FDA 209P JC-1; conditions: FDA209P, read-out: Minimum inhibitory concentration (MIC)
Protocol: as §1

Proteus vulgaris OX-19 = assay: Antibacterial activity (MIC), Proteus vulgaris OX-19; conditions: OX19; Proteus vulgaris OX-19, Gram -; read-out: Minimum inhibitory concentration (MIC)
Protocol: as §1

[7] = system: Streptococcus faecalis IID 682; assay: Antibacterial activity (MIC), Streptococcus faecalis IID 682; conditions: Enterococcus faecalis, IID682, Streptococcus faecalis IID 682, Gram +; read-out: Minimum inhibitory concentration (MIC)
Protocol: as §1

[8] = system: Pseudomonas aeruginosa NCTC 10490; assay: Antibacterial activity (MIC), P. aeruginosa NCTC 10490; conditions: Pseudomonas aeruginosa, NCTC10490, Pseudomonas aeruginosa NCTC 10490, Gram -; read-out: Minimum inhibitory concentration (MIC)
Protocol: as §1

[9] = system: Pseudomonas aeruginosa IFO 3445; assay: Antibacterial activity (MIC), P. aeruginosa IFO 3445; conditions: Pseudomonas aeruginosa, IFO3445, Pseudomonas aeruginosa IFO 3445, Gram -; read-out: Minimum inhibitory concentration (MIC)
Protocol: as §1

Enterobacter cloacae 963 = assay: Antibacterial activity (MIC), Enterobacter cloacae 963; conditions: Enterobacter cloacae, 963, Enterobacter cloacae 963, Gram -; read-out: Minimum inhibitory concentration (MIC)
Protocol: as §1

[10] = system: Acinetobacter calcoaceticus AC 54; assay: Antibacterial activity (MIC), Acinetobacter calcoaceticus AC 54; conditions: AC54; Acinetobacter calcoaceticus AC 54, Gram -; read-out: Minimum inhibitory concentration (MIC)
Protocol: as §1

[11] = system: Klebsiella pneumoniae PCI-602; assay: Antibacterial activity (MIC), Klebsiella pneumoniae PCI-602; conditions: PCI602; Klebsiella pneumoniae PCI-602, Gram -; read-out: Minimum inhibitory concentration (MIC)
Protocol: as §1

[12] = system: Morganella morganii IFO 3848; assay: Antibacterial activity (MIC), Morganella morganii IFO 3848; conditions: Morganella morganii, IFO3848, Morganella morganii IFO 3848, Gram -; read-out: Minimum inhibitory concentration (MIC)
Protocol: as §1

[13] = system: Pseudomonas aeruginosa E-2; assay: Antibacterial activity (MIC), P. aeruginosa E-2; conditions: E2; Pseudomonas aeruginosa E-2, Gram -; read-out: Minimum inhibitory concentration (MIC)
Protocol: as §1

[14] = system: Bacillus subtilis ATCC 6633; assay: Antibacterial activity (MIC), Bacillus subtilis ATCC 6633; conditions: Bacillus subtilis, ATCC6633, Bacillus subtilis ATCC 6633, Gram +; read-out: Minimum inhibitory concentration (MIC)
Protocol: as §1

Shigella sonnei EW-33 = assay: Antibacterial activity (MIC), Shigella sonnei EW-33; conditions: Shigella sonnei, EW33, Shigella sonnei EW-33, Gram -; read-out: Minimum inhibitory concentration (MIC)
Protocol: as §1

[15] = system: Staphylococcus epidermidis IAM-1296; assay: Antibacterial activity (MIC), S. epidermidis IAM-1296; conditions: Staphylococcus epidermidis, IAM1296, Staphylococcus epidermidis IAM-1296, Gram +; read-out: Minimum inhibitory concentration (MIC)
Protocol: as §1

[16] = system: Citrobacter freundii NIHJ 10018-68; assay: Antibacterial activity (MIC), Citrobacter freundii NIHJ 10018-68; conditions: Citrobacter freundii, NIHJ10018, Citrobacter freundii NIHJ 10018-68, Gram -; read-out: Minimum inhibitory concentration (MIC)
Protocol: as §1

[17] = system: Enterobacter aerogenes ATCC 13048; assay: Antibacterial activity (MIC), Enterobacter aerogenes ATCC 13048; conditions: Klebsiella aerogenes, ATCC13048; Enterobacter aerogenes ATCC 13048, Gram -; read-out: Minimum inhibitory concentration (MIC)
Protocol: as §1

[18] = system: Proteus mirabilis IFO 3849; assay: Antibacterial activity (MIC), Proteus mirabilis IFO 3849; conditions: IFO3849; Proteus mirabilis IFO 3849, Gram -; read-out: Minimum inhibitory concentration (MIC)
Protocol: as §1

[19] = IID803, Staphylococcus aureus IID 803, Gram +, read-out: Minimum inhibitory concentration (MIC)
[20] = Staphylococcus aureus FDA 209P JC-1, Gram +

Structure (SMILES) | MIC [1] [mg/L] | MIC [2] [mg/L] | MIC [3] [mg/L] | MIC [4] [mg/L] | MIC (Escherichia coli KC-14) [mg/L] | MIC (Proteus vulgaris OX-19) [mg/L] | MIC [7] [mg/L] | MIC [8] [mg/L] | MIC [9] [mg/L] | MIC (Enterobacter cloacae 963) [mg/L] | MIC [10] [mg/L] | MIC [11] [mg/L] | MIC [12] [mg/L] | MIC [13] [mg/L] | MIC [14] [mg/L] | MIC (Shigella sonnei EW-33) [mg/L] | MIC [15] [mg/L] | MIC [16] [mg/L] | MIC [17] [mg/L] | MIC [18] [mg/L] | also measured
CN1Cc2csc3c(C(=O)O)c(=O)c4cc(F)c(N5CCN(O)CC5)c1c4n23 [Compound (L), 9,1-(Methylimino)methano-7-fluoro-8-(4-hydroxy-1-piperazinyl)-5-oxo-5H-thiazolo[3,2-a]quinoline-4-carboxylic acid] | 0.78 (≈ 1.93 µM) | 0.78 (≈ 1.93 µM) | 0.1 (≈ 0.247 µM) | 0.1 (≈ 0.247 µM) | 0.1 (≈ 0.247 µM) | 0.0125 (≈ 0.0309 µM) | 0.1 (≈ 0.247 µM) | 0.39 (≈ 0.964 µM) | 0.78 (≈ 1.93 µM) | 0.1 (≈ 0.247 µM) | 0.025 (≈ 0.0618 µM) | 0.006 (≈ 0.0148 µM) | 0.1 (≈ 0.247 µM) | 0.78 (≈ 1.93 µM) | 0.0125 (≈ 0.0309 µM) | 0.05 (≈ 0.124 µM) | 0.1 (≈ 0.247 µM) | 0.39 (≈ 0.964 µM) | 0.1 (≈ 0.247 µM) | 0.2 (≈ 0.495 µM) | MIC ([5]; Staphylococcus aureus, IID803, read-out: Minimum inhibitory concentration (MIC)): 0.05 mg/L (≈ 0.124 µM); MIC ([6]; Staphylococcus aureus): 0.05 mg/L (≈ 0.124 µM)
CCNCC1CCN(c2c(F)cc3c(=O)c(C(=O)O)c4scc5n4c3c2N(C)C5)C1 (stereo not drawn) [Compound (M), 9,1-(Methylimino)methano-7-fluoro-8-(3-ethylaminomethyl-1-pyrrolidinyl)-5-oxo-5H-thiazolo[3,2-a]quinoline-4-carboxylic acid hydrochloride] | 0.78 | 0.2 | 0.1 | 0.1 | 0.1 | 0.05 | 0.05 | 0.39 | 1.56 | 0.2 | 0.05 | 0.006 | 0.2 | 1.56 | 0.0125 | 0.05 | 0.05 | 0.78 | 0.1 | 0.39 | MIC [5, 19]: 0.0125 mg/L; MIC [6, 20]: 0.025 mg/L
CNCC1CCN(c2c(F)cc3c(=O)c(C(=O)O)c4scc5n4c3c2N(C)C5)C1 (stereo not drawn) [Compound (N), 9,1-(Methylimino)methano-7-fluoro-8-(3-methylaminomethyl-1-pyrrolidinyl)-5-oxo-5H-thiazolo[3,2-a]quinoline-4-carboxylic acid hydrochloride] | 0.78 | 0.2 | 0.1 | 0.1 | 0.05 | 0.05 | 0.05 | 0.39 | 0.78 | 0.1 | 0.05 | 0.0125 | 0.2 | 0.78 | 0.025 | 0.05 | 0.05 | 0.78 | 0.2 | 0.39 | MIC [5, 19]: 0.0125 mg/L; MIC [6, 20]: 0.025 mg/L
